Assay results taken from patent US11542262B2, “Phosphatidylinositol 3-kinase inhibitors” (NANJING ZHENGXIANG PHARMACEUTICALS CO., LTD., priority 2019, dated 2023).
Converted amounts (≈) assume the structure as drawn.

Columns and labels:
PI3K gamma = target: T1, PI3K gamma (Mus musculus, UniProt Q9JHG7); experiment: Raw264.7 cell assay: phosphorylation of AKT in C5a stimulated RAW264.7 cells (AlphaLISA); type: cell-based; conditions: pAKT, read-out: PI3K gamma Raw264.7 cell (nM) cellular activity (IC50)
T1 construct: endogenous in cells; host or cells: RAW264.7
Description: (§1) This study aims to determine the inhibitory effect of compounds on PI3K gamma and PI3K delta in corresponding cell based assays. PI3K gamma activity was reflected by phosphorylation of AKT in C5a stimulated RAW264.7 cells, and PI3K delta activity was reflected by phosphorylation of AKT in anti-IgM stimulated Raji cells. Phosphorylation of AKT in cells was determined using AlphaLISA technology from PerkinElmer.
Raw264.7 cell assay: Prepare Passage 15 Raw264.7 cell and add 6 μL of 30K cells per well in 384-well plate by multidrop. Centrifuge at 500 RPM for 30 s and incubate for 2 hours at 37° C., 5% CO2. Add 30 nL compound by echo and incubate for 30 min at 37° C., 5% CO2. […] Add 2 μL of 5× lysis buffer by multidrop, incubate for 10 min on a plate shaker. Add 5 μL acceptor mix provided in the kit, centrifuge at 1000 RPM for 1 min. Add 5 μL donor mix provided in the kit, centrifuge at 1000 RPM for 1 min and incubate in dark for 2 hours at 25° C. Read AlphaLISA signal on Envision.
Y=Bottom+(Top−Bottom)/(1+10^((Log IC50−X)*Hill Slope)) X: Log of cpd concentration Y: Inhibition

PI3Kδ = PI3Kδ (Homo sapiens, UniProt O00329); experiment: ADP-Glo luminescent assay, enzymatic activity of PI3K delta; type: biochemical; conditions: ATP 25 μM; read-out: PI3K delta (nM) inhibitory activity (IC50)
Description: Enzymatic activity of PI3K isoforms: Enzymatic activity of the class I PI3K isoforms in the presence of the compounds of Table 1 was measured using ADP-Glo luminescent assay against PI3Kα, PI3Kβ, PI3Kδ and PI3Kγ with ATP concentration at 25 μM. […] The compounds would be tested from 1 or 10 μM, 3-fold dilution for 10 doses, in duplicate.
(§2) Compound preparation: Dilute a compound to 100× of the final desired highest inhibitor concentration in reaction by 100% DMSO. Transfer 100 μl of this compound dilution to a well in a 96-well plate and serially dilute it with DMSO for a total of 10 concentrations.
(§3) Kinase reaction: Prepare a solution of PI3K in 1× kinase buffer at 2-fold the final concentration of each reagent in the assay. Control wells contain 1× kinase buffer without enzyme. Prepare substrate solution of PIP2 substrate and ATP in 1× kinase reaction buffer at 2-fold of the final concentration. Add concentration substrate solution to each well to the final concentration. Cover the assay plate, shake to mix, and incubate at room temperature for 1 hour. Add 5 μl of ADP-Glo reagent to each well to stop the reaction. Mix briefly with a quick spin, shake slowly on the shaker for 120 min. Add 10 ul Kinase Detection Reagent to each well, shake 1 min, equilibrate for 30 min before reading on a luminescence plate reader.
(§4) Data Analysis: Convert RLU values to percent inhibition values as Percent inhibition=(max−sample RLU)/(max−min)*100. “min”—no enzyme control; “max”—DMSO control. Fit the data in XLFit excel add-in version 5.4.0.8 to obtain IC50 values. Y=Bottom+(Top−Bottom)/(1+(IC50/X)^HillSlope).

[1] = Kinetic solubility test in PBS pH7.4; type: physicochemical; conditions: aqueous buffer, kinetic from dmso stock; PBS pH 7.4, 25° C., 2 hours
Description: 15 μL of stock solution (10 mM) was placed in order into their proper 96-well rack. 485 μL of PBS pH7.4 was added into each vial of the cap-less Solubility Sample plate. The assay was performed in singlet. Add one stir stick to each vial and seal using a molded PTFE/Silicone plug. […] After completion of the 2 hours, the samples from the Solubility Sample plate were transferred into the filter plate. all the samples were filtered using the Vacuum Manifold. Aliquot of 5 μL was taken from the filtrate followed by addition of 495 μL of a mixture of H2O and acetonitrile containing internal standard (1:1). A certain proportion of ultrapure water was used to dilute the diluent according to the peak shape. The dilution factor was changed according to the solubility values and the LC-MS signal response.
Preparation of 3 μM standards (STD): From the 10 mM DMSO STD plate, 6 μL was transferred into the remaining empty plate, and then 194 μL of DMSO was added to that plate to have a STD concentration of 300 μM. From the 300 μM DMSO STD plate, 5 μL was transferred into the remaining empty plate, and then 495 μL of a mixture of H2O and acetonitrile containing internal standard (1:1) was added to that plate to have a final STD concentration of 3 μM. A certain proportion of ultrapure water was used to dilute the diluent according to the peak shape. The concentrations of the standard samples were changed according to the LC-MS signal response.
Procedure for sample analysis: The plate was placed into the well plate autosampler. The samples were evaluated by LC-MS/MS analysis.
Data analysis: All calculations were carried out using Microsoft Excel.
The filtrate was analyzed and quantified against a standard of known concentration using LC coupled with mass spectral peak identification and quantitation. Solubility values of the test compound and control compound were calculated as follows:
[formula] • Any value of the compounds that was not within the specified limits was rejected and the experiment was repeated.

PI3Kγ = PI3Kγ (Homo sapiens, UniProt P48736); experiment: ADP-Glo luminescent assay, enzymatic activity of PI3K gamma; type: biochemical; conditions: ATP 25 μM; read-out: PI3K gamma (nM) inhibitory activity (IC50)
PI3Kγ, sequence (P48736 whole entry, species assumed): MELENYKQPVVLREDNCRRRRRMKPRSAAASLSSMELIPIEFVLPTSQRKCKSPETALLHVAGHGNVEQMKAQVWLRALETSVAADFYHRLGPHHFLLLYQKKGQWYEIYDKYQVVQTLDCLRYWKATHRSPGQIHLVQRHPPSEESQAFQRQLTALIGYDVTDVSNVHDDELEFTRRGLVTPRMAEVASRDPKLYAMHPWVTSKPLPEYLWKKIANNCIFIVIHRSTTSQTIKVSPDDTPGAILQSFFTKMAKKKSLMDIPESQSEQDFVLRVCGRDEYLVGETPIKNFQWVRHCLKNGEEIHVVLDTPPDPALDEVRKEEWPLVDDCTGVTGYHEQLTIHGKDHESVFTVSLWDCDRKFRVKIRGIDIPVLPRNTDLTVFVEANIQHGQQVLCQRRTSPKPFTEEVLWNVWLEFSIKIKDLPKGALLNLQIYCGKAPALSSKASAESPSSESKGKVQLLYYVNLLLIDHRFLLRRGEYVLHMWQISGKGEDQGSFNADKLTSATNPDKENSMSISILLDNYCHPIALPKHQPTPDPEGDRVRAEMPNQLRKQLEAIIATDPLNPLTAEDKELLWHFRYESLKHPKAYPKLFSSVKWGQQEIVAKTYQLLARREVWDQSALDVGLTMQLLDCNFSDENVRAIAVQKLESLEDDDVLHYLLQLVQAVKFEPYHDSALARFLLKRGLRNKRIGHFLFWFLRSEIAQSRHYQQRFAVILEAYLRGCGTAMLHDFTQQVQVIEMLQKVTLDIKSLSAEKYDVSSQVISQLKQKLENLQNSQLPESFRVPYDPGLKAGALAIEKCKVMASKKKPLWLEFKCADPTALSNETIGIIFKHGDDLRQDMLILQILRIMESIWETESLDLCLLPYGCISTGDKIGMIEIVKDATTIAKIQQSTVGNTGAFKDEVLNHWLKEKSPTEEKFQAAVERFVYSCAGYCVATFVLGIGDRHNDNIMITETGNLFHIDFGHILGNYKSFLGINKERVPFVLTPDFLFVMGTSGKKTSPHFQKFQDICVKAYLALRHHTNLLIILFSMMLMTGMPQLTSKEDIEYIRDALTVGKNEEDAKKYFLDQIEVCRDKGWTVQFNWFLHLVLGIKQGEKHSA
Description: The compounds would be tested from 1 or 10 μM, 3-fold dilution for 10 doses, in duplicate.
as §2
as §3, with “Mix briefly with a quick spin, shake slowly on the shaker for 120 min.” left out
as §4

[2] = dogs, reported by Pemberton et al, J Med Chem 2018; cited from earlier work
PI3K delta = target: T2, PI3K delta (Homo sapiens, UniProt O00329); experiment: Raji cell assay: phosphorylation of AKT in anti-IgM stimulated Raji cells (AlphaLISA); type: cell-based; conditions: pAKT, read-out: PI3K delta Raji cell (nM) cellular activity (IC50)
T2 construct: endogenous in cells; host or cells: Raji
T2 sequence (O00329 whole entry): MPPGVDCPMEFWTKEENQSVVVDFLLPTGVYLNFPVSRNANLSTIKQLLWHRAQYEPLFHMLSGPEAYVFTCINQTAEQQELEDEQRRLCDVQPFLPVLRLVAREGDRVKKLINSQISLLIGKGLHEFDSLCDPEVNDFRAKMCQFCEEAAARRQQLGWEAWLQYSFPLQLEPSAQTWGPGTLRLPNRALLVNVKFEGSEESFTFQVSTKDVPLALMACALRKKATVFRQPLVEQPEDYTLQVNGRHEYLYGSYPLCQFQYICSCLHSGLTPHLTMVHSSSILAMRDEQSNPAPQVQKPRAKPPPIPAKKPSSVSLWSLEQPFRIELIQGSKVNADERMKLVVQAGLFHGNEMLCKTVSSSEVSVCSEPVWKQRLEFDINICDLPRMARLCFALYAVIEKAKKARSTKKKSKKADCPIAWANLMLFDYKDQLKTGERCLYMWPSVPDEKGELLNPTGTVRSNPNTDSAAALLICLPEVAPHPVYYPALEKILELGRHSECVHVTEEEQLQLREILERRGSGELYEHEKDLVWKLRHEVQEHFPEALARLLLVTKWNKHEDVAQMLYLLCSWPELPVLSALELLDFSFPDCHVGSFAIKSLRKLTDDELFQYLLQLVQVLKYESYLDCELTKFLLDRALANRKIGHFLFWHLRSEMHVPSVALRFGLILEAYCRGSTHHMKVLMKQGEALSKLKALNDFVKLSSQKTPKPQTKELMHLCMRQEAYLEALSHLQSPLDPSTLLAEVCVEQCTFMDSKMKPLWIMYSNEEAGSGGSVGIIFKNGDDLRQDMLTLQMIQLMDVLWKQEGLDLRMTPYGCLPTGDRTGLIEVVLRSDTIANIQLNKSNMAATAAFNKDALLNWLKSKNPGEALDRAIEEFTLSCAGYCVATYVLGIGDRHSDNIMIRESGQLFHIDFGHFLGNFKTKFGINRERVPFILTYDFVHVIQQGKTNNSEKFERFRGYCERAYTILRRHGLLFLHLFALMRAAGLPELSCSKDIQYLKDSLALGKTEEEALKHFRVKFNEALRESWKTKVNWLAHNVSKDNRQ
T2 sequence (P27986 whole entry partner): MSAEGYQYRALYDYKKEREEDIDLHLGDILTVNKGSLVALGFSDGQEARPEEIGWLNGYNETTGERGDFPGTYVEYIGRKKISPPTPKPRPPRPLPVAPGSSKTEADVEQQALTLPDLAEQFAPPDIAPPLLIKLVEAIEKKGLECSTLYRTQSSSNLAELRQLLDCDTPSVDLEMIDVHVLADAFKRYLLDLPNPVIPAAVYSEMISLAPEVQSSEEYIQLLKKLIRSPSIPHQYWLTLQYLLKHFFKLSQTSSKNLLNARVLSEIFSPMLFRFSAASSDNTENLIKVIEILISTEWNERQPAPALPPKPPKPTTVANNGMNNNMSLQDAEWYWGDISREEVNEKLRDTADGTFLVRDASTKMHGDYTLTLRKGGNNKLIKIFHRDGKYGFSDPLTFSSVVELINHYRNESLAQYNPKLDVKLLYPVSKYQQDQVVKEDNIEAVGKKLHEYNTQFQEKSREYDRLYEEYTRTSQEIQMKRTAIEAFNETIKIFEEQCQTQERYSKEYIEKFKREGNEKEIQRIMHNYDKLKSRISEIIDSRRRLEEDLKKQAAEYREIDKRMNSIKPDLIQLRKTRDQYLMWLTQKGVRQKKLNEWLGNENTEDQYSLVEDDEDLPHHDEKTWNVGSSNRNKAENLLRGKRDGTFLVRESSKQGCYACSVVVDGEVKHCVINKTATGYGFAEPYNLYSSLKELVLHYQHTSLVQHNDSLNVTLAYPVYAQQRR
Description: as §1
Raji cell assay: Prepare Passage 11 Raji cell and add 6 μL of 60K cells per well in 384-well plate. Centrifuge at 500 RPM for 30 s and incubate for 2 hours at 37° C., 5% CO2. Add 30 nL compound by Echo and incubate for 30 min at 37° C. Add 2 μL of IgM (4×, 12 μg/mL) per well, centrifuge at 500 RPM for 30 s and incubate for 10 min at 37° C. Add 2 μL of 5× lysis buffer by Multidrop. Shake 10 min on a plate shaker. Add 5 μL acceptor mix provided in the kit. Centrifuge at 1000 RPM for 1 min. Add 5 μL donor mix provided in the kit. Centrifuge at 1000 RPM for 1 min. Then incubate for 2 hours at 25° C., keep the plate in dark. Read AlphaLISA signal on Envision.
Data analysis: Fit the cpd IC50 from non-linear regression equation. Y=Bottom+(Top−Bottom)/(1+10^((Log IC50−X)*Hill Slope)) X: Log of cpd concentration Y: Inhibition

PI3Kα = PI3Kα (Homo sapiens, UniProt P42336); experiment: ADP-Glo luminescent assay, enzymatic activity of PI3K alpha; type: biochemical; conditions: ATP 25 μM; read-out: PI3K alpha (nM) inhibitory activity (IC50)
PI3Kα, sequence (P42336 whole entry, species assumed, canonical isoform): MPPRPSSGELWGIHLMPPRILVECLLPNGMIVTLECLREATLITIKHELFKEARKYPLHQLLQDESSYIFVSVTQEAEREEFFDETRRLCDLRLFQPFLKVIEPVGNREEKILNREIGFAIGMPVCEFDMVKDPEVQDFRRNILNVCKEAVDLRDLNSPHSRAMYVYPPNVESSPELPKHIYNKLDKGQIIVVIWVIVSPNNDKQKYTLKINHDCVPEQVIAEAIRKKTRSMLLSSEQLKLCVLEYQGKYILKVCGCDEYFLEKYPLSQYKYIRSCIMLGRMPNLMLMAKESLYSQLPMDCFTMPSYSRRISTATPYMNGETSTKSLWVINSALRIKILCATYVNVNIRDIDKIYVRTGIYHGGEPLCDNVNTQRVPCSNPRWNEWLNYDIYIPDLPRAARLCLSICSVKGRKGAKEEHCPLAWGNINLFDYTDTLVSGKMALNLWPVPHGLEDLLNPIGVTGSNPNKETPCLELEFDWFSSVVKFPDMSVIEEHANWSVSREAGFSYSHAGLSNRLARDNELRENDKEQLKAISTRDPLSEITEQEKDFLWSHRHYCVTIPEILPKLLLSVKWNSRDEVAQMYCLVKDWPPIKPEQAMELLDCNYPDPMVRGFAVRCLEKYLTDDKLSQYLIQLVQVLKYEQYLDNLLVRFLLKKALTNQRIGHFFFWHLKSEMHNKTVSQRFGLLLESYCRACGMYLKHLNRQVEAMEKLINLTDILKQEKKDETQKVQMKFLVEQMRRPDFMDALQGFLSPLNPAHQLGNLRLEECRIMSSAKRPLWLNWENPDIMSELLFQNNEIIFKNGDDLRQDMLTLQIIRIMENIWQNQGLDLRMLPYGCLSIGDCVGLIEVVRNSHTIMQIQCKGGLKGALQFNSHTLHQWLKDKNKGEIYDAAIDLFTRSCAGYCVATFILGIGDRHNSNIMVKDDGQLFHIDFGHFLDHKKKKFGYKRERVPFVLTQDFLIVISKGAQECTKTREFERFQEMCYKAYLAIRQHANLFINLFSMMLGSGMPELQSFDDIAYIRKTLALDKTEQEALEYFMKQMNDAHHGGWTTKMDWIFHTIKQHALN
PI3Kα, sequence (P27986 whole entry partner, species assumed, canonical isoform): as the sequence (P27986 whole entry partner) above
Description: (§5) Enzymatic activity of PI3K isoforms: Enzymatic activity of the class I PI3K isoforms in the presence of the compounds of Table 1 was measured using ADP-Glo luminescent assay against PI3Kα, PI3Kβ, PI3Kδ and PI3Kγ with ATP concentration at 25 μM. IPI-549 was used as the reference compound. The compounds would be tested from 1 or 10 μM, 3-fold dilution for 10 doses, in duplicate.
as §2, §3, §4

PI3Kβ = PI3Kβ (Homo sapiens, UniProt P42338); experiment: ADP-Glo luminescent assay, enzymatic activity of PI3K beta; type: biochemical; conditions: ATP 25 μM; read-out: PI3K beta (nM) inhibitory activity (IC50)
PI3Kβ, sequence (P42338 whole entry, species assumed): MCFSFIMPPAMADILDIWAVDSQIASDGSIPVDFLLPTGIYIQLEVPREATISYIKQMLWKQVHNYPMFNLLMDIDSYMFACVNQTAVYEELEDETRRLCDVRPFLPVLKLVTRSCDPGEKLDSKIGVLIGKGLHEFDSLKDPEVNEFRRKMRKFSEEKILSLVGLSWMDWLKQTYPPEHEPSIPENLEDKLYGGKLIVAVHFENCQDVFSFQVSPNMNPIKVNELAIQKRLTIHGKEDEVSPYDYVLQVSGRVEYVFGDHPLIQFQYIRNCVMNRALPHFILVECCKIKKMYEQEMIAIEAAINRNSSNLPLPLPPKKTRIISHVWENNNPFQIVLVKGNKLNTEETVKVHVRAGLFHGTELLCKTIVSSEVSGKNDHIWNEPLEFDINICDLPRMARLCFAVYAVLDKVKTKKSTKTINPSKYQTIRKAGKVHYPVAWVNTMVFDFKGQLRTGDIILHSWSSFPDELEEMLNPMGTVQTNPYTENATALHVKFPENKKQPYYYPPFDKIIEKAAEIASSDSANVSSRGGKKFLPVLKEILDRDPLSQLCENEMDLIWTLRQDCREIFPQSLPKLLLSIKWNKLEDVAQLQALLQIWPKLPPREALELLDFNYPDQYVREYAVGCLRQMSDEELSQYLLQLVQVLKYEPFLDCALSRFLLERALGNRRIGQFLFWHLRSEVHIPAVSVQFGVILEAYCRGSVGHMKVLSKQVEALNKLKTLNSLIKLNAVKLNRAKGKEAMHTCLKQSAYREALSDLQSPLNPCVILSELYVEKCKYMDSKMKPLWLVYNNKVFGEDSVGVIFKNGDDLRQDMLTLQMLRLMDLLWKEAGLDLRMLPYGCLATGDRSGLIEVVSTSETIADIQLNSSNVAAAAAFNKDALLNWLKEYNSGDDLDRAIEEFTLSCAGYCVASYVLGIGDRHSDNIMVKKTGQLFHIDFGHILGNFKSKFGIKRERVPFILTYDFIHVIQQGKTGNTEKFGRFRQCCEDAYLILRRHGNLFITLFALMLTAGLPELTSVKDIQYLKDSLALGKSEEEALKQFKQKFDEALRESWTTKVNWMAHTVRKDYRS
PI3Kβ, sequence (P27986 whole entry partner, species assumed): as the sequence (P27986 whole entry partner) above
Description: as §5, §2, §3, §4

SMILES | IC50 (PI3K gamma) [nM] | IC50 (PI3Kδ) [nM] | solubility at 2 h [1] [µM] | IC50 (PI3Kγ) [nM] | IC50 (PI3K delta) [nM] | IC50 (PI3Kα) [nM] | IC50 (PI3Kβ) [nM] | Vssobs [2] [L/kg]
CC(=O)Nc1nc(C)c(-c2cc3c(c([S@@+](C)[O-])c2)C(=O)N([C@@H](C)C2CC2)C3)s1 (racemic) [Compound 12, N-(5-(2-((S)-1-cyclopropylethyl)-7-(methylsulfinyl)-1-oxoisoindolin-5-yl)-4-methylthiazol-2-yl)acetamide] | 30 | 2080 | 211 (≈ 88.1 µg/mL) | 1.7 |  |  |  | 
CC(=O)Nc1nc(C)c(-c2cc3c(c([S@](C)(=N)=O)c2)C(=O)N([C@@H](C)C2CC2)C3)s1 (racemic) [Compound 15, N-(5-(2-((S)-1-cyclopropylethyl)-7-(S-methylsulfonimidoyl)-1-oxoisoindolin-5-yl)-4-methylthiazol-2-yl)acetamide] | 130 | 784 | 245 (≈ 106 µg/mL) | 1.9 |  |  |  | 
CC(=O)Nc1nc(C)c(-c2cc3c(c(NS(C)(=O)=O)c2)C(=O)N([C@@H](C)C2CC2)C3)s1 [AZ-17] |  |  |  |  |  |  |  | 0.7
CC(=O)Nc1nc(C)c(-c2cc3c(c(P(C)(C)=O)c2)C(=O)N([C@@H](C)C2CC2)C3)s1 [Compound 1, (S)-N-(5-(2-(1-cyclopropylethyl)-7-(dimethylphosphoryl)-1-oxoisoindolin-5-yl)-4-methylthiazol-2-yl)acetamide] | 315 | > 1000 |  | 1.4 | > 1000 |  |  | 
CC(=O)Nc1nc(C)c(-c2cc3c(c(N4CCS(=O)(=O)CC4)n2)C(=O)N([C@@H](C)C2CC2)C3)s1 [Compound 38, (S)-N-(5-(2-(1-cyclopropylethyl)-4-(1,1-dioxidothiomorpholino)-3-oxo-2,3-dihydro-M-pyrrolo[3,4-c]pyridin-6-yl)-4-methylthiazol-2-yl)acetamide] | 9.3 | 1550 | 2.3 (≈ 1.13 µg/mL) | 1.9 |  | 8420 | > 10000 | 
CC(=O)Nc1nc(C)c(-c2cc3c(c(NC(C)=O)n2)C(=O)N([C@@H](C)C2CC2)C3)s1 [Compound 44, (S)-N-(5-(4-acetamido-2-(1-cyclopropylethyl)-3-oxo-2,3-dihydro-M-pyrrolo[3,4-c]pyridin-6-yl)-4-methylthiazol-2-yl)acetamide] | 5.1 | > 1000 | 1.2 (≈ 0.496 µg/mL) | 0.87 |  |  |  | 

The remaining compounds from weak to strong by IC50 (PI3K gamma), led by results:

IC50 (PI3K gamma) [nM] | IC50 (PI3Kδ) [nM] | solubility at 2 h [1] [µM] | IC50 (PI3Kγ) [nM] | IC50 (PI3K delta) [nM] | IC50 (PI3Kα) [nM] | IC50 (PI3Kβ) [nM] | SMILES | Vssobs [2] [L/kg]
3.3 | 1250 | 32 (≈ 15 µg/mL) | 2.4 |  |  |  | CC(=O)Nc1nc(C)c(-c2cc3c(c(N4CCOCC4)n2)C(=O)N(C(C)C(F)(F)F)C3)s1 (stereo in doubt) [Compound 36, (R)-N-(4-methyl-5-(4-morpholino-3-oxo-2-(1,1,1-trifluoropropan-2-yl)-2,3-dihydro-1H-pyrrolo[3,4-c]pyridin-6-yl)thiazol-2-yl)acetamide] | 
3.2 | 1330 | 23 (≈ 10.2 µg/mL) |  |  | 4140 | > 10000 | CC(=O)Nc1nc(C)c(-c2cc3c(c(N4CCOCC4)n2)C(=O)N([C@H](C)C2CC2)C3)s1 [Compound 35, (R)-N-(5-(2-(1-cyclopropylethyl)-4-morpholino-3-oxo-2,3-dihydro-1H-pyrrolo[3,4-c]pyridin-6-yl)-4-methylthiazol-2-yl)acetamide] | 
2.5 | > 1000 | 3.5 (≈ 1.35 µg/mL) | 1.7 | 2280 |  |  | COc1nc(-c2sc(NC(C)=O)nc2C)cc2c1C(=O)N([C@@H](C)C1CC1)C2 [Compound 22, (S)-N-(5-(2-(1-cyclopropylethyl)-4-methoxy-3-oxo-2,3-dihydro-1H-pyrrolo[3,4-c]pyridin-6-yl)-4-methylthiazol-2-yl)acetamide] | 
2.2 | 794 | 83 (≈ 39.5 µg/mL) | 1.5 | 1420 |  |  | CC(=O)Nc1nc(C)c(-c2cc3c(c(NS(=O)(=O)C4CC4)n2)C(=O)N([C@@H](C)C2CC2)C3)s1 [Compound 24, (S)-N-(5-(4-(cyclopropanesulfonamido)-2-(1-cyclopropylethyl)-3-oxo-2,3-dihydro-1H-pyrrolo[3,4-c]pyridin-6-yl)-4-methylthiazol-2-yl)acetamide] | 
2 | 1210 | 202 (≈ 93.6 µg/mL) | 1 | 1510 | 3330 | > 10000 | CCS(=O)(=O)Nc1nc(-c2sc(NC(C)=O)nc2C)cc2c1C(=O)N([C@@H](C)C1CC1)C2 [Compound 23, (S)-N-(5-(2-(1-cyclopropylethyl)-4-(ethylsulfonamido)-3-oxo-2,3-dihydro-1H-pyrrolo[3,4-c]pyridin-6-yl)-4-methylthiazol-2-yl)acetamide] | 
